Results on 5 molecules are retold here after patent US20260315474A1 (BRISTOL-MYERS SQUIBB COMPANY, priority 2023, published 2026).

Series [1] is described as follows: Thorough QT study (QT/QTc interval, ECG). The class given is in vivo, human. To be noted: for highest upper limit of 2-sided 90% CI for ΔΔQTcF: Day 1 and Day 4 postdose.
In series [2] the test system is Factor Xa. To be noted: cited from earlier work.
The conditions of series [3]: cited from earlier work; for chronic clopidogrel vs aspirin monotherapy: atherosclerosis, including MI within 35 days.
The subject of series [4] is Factor XI. Kind of series: Factor XI clotting activity, AXIOMATIC-SSP. The format is in vivo, human. How it is done:
As used herein, “Factor XI Clotting Activity” is determined utilizing an aPTT-based 1-stage clotting time assay. Serial dilutions of normal pooled plasma are mixed with FXI-depleted plasma and the clotting times are measured according to standard aPTT protocol, to establish a reference range. Subject test plasma is treated in the same way and compared with the reference plasma.
In some embodiments, the Factor XI Clotting Activity is measured as follows: Factor XI (FXI) activity is measured using a modification of the activated partial thromboplastin time (aPTT) using Actin FS (Siemens Healthcare) on the Siemens BCS®XP analyzer. […]. The reference standard, at approximately 100%, is diluted by the BCS®XP analyzer in saline to generate pre-selected calibration levels of FXI. The calibration curve is plotted with FXI activity in percent (%) on the x-axis and clotting time in seconds on the y-axis. A log/lin regression curve fit is used. The samples to be tested are mixed with FXI deficient plasma (containing less than 1% FXI and at least 75% of all the other factors) to normalize all other factors. APTT reagent (Actin FS) is added and the mixture is incubated. Following incubation, calcium chloride is added to the mixture and the time to clot formation (measured optically) is compared to the time on the calibration curve. Samples are tested at the base dilution (1:10) prepared by the BCS®XP in saline. In other embodiments, formation of the fibrin clot is measured by mechanical methods (viscosity).
[…]. […] […].

Series [5] can be described thus: AXIOMATIC-SSP treatment discontinuation / completion. Particulars: 200 mg BID, primarily due to AEs. The text has this: The study enrolled participants ≥40 years of age who had ischemic stroke or TIA. Ischemic stroke was defined as a neurological deficit attributable to a non-lacunar, acute brain infarction detected by neuroimaging and relevant to the clinical symptoms and National Institutes of Health Stroke Score (NIHSS)≤7 at the time of randomization. TIA was defined as acute onset neurological deficit attributable to focal ischemia of the brain by history or examination, with complete resolution of the deficit and no brain infarction on neuroimaging and ABCD score ≥6 or presence of motor symptoms. Evidence of relevant intracranial or cervical arterial atherosclerotic plaque, ulceration or thrombus in a feeding artery documented by imaging was required regardless of whether the index event was ischemic stroke or TIA, and all participants were required to have a Modified Rankin Score ≤3 before the index event. […] Following informed consent, participants received ASA 100 mg QD and a single loading dose of clopidogrel 300 mg if not already given as standard of care. […] A second MRI was performed on Day 90±6 days. All participants were required to remain on study treatment until the Day 90 MRI was performed up to Day 96.

The nature of series [6]: Population pharmacokinetic analysis of AXIOMATIC-SSP PK data. The format is in vivo, human. To be noted: 25 mg BID oral.
Series [7] in a line: AXIOMATIC-TKR Phase II trial. The format is in vivo, human. Particulars: 25 mg twice daily. From the text: […]. […] (Weitz, et al., Milvexian for the Prevention of Venous Thromboembolism, N. Engl. […].
A short description of series [8]: Safety and tolerability of milvexian (thorough QT study / general). The format is in vivo, human. From the text: All 66 (100.0%) participants enrolled in the study received at least one entire dose of study intervention.
Where [9] appears, read: phase III, ACS patients, in combination with dual antiplatelet therapy.
Where [10] appears, read: 25 mg BID, Day 21 anytime, N=233.
[11] abbreviates: 25 mg BID, Day 90 anytime, N=223.
Setting [12] is: dose of 25 mg, 50 mg, or 100 mg.

Take `COc1c(N2C[C@@H]3CCCN[C@@H]3C2)c(F)cc2c(=O)c(C(=O)O)cn(C3CC3)c12` [moxifloxacin, reference compound]: in series [1] (following moxifloxacin), the “participants with treatment-emergent change from baseline of QTcB>60 ms, number” value is “One” and the “participants with treatment-emergent change from baseline of QTcB>60 ms, percent” value turned out to be 1.7%. In series [1] (single dose 400 mg moxifloxacin), the “assay sensitivity (QTc, positive control)” value was “Assay sensitivity for moxifloxacin was also demonstrated”.
`O=C(NC[C@H]1CN(c2ccc(N3CCOCC3=O)cc2)C(=O)O1)c1ccc(Cl)s1` [rivaroxaban]: in series [2] (setting [9]), the “risk of death from cardiovascular causes, myocardial infarction, and stroke” value was “reduced the risk of death from cardiovascular causes, myocardial infarction, and stroke”; the “risk of major bleeding” value was “increased the risk of major bleeding”. In series [2] (post-ACS care), the bleeding risks result is reported as “increased bleeding risks”, the cardiovascular events entry is on record as “reduced cardiovascular events” and the thrombin generation entry is reported as “decreased thrombin generation”.
As to `COC(=O)[C@H](c1ccccc1Cl)N1CCc2sccc2C1` [clopidogrel], the “chronic clopidogrel vs aspirin monotherapy” value in series [3] is reported as “comparable results”.
On to `CC(=O)Oc1ccccc1C(=O)O` [aspirin], for which the “chronic clopidogrel vs aspirin monotherapy” value in series [3] was “comparable results”. In series [3] (pooled randomized trials vs control, secondary prevention of ACS or chronic CAD), the “risk and severity of recurrent MACE” value was “reduces the risk and severity of early and late recurrent MACE”.
`C[C@@H]1CCC[C@H](n2cnc(-c3cc(Cl)ccc3-n3cc(Cl)nn3)cc2=O)c2cc(ccn2)-c2c(cnn2C(F)F)NC1=O` [milvexian, (5R,9S)-9-(4-(5-chloro-2-(4-chloro-1H-1,2,3-triazol-1-yl)phenyl)-6-oxopyrimidin-1(6H)-yl)-2^1-(difluoromethyl)-5-methyl-2^1H-3-aza-1(4,2)-pyridina-2(5,4)-pyrazolacyclonaphan-4-one]: in series [4] (25 mg BID, Day 1 4 h, N=254), the “FXI Clotting Activity percent change from baseline, mean” value is given as −7.21%; the “FXI Clotting Activity percent change from baseline, median” value was −8.48%; the “FXI Clotting Activity value, median” value is given as 100.0%. Further, in series [4] (25 mg BID, Day 1 12 h, N=241), the “FXI Clotting Activity percent change from baseline, mean” value is −6.89% and the “FXI Clotting Activity percent change from baseline, median” value is listed as −7.63%. In series [4] (25 mg BID, Day 1 24 h, N=253), the “FXI Clotting Activity percent change from baseline, mean” value is on record as −9.69% and the “FXI Clotting Activity percent change from baseline, median” value is recorded as −11.30%. In series [4] (setting [10]), the “FXI Clotting Activity percent change from baseline, mean” value is listed as −18.1% and the “FXI Clotting Activity percent change from baseline, median” value is on record as −19.10%. Besides, in series [4] (setting [11]), the “FXI Clotting Activity percent change from baseline, mean” value is −17.7% and the “FXI Clotting Activity percent change from baseline, median” value was −20.16%. The “dose-response of Factor XI clotting activity” value in series [4] (milvexian treated groups) is on record as “dose-dependent decreases in the Factor XI clotting activity”. Besides, the “early treatment discontinuation rate” value in series [5] amounted to 31.60%. Moreover, the “steady state mean (std) Cmax” value in series [6] is on record as 346 (129) ng/mL. For the same molecule, in series [6] ([…]), the “steady state mean (std) AUC0-24” value is recorded as 7290 (2940) ng*h/mL. Also, in series [1] (100 mg), the “upper limits of all 2-sided 90% CIs of time-matched differences vs placebo in changes from baseline in QTcF” value is “below 10 ms” and the “highest upper limit of 2-sided 90% CI for ΔΔQTcF” value is reported as 5.16 ms. For the same molecule, in series [1] (100 mg twice daily), the “upper limits of 90% CI for ΔΔQTcF at milvexian Tmax” value is listed as “below 10 ms”. Also, in series [1] (100 mg twice daily as capsule), the “upper bound of two-sided CI for largest ΔΔQTc (QTcF)” value is “less than 10 milliseconds”. Also, in series [1] (200 mg), the “upper limits of all 2-sided 90% CIs of time-matched differences vs placebo in changes from baseline in QTcF” value was “below 10 ms” and the “highest upper limit of 2-sided 90% CI for ΔΔQTcF” value was determined as 4.57 ms. Also, the “upper limits of 90% CI for ΔΔQTcF at milvexian Tmax” value in series [1] (200 mg twice daily) was “below 10 ms”. For the same molecule, in series [1] (200 mg twice daily as solution), the “upper bound of two-sided CI for largest ΔΔQTc (QTcF)” value is “less than 10 milliseconds”. In addition, in series [1] (100 and 200 mg), the “effect on QT interval (QTcF), ICH E14” value was “no effect of clinical or regulatory concern on the QT interval”; the “effect on QT interval (study-specific and Bazett's correction), ICH E14” value is given as “no effect of clinical or regulatory concern on the QT interval”. Moreover, in series [1] (setting [12]), the QTc interval prolongation result is listed as “no clinically significant QTc interval prolongation” and the ΔΔQTc entry is given as “less than 10 msec”. For the same molecule, the “evidence of QT/QTc interval prolongation, ICH E14” value in series [1] (therapeutic (100 mg) and supratherapeutic (200 mg)) is on record as “does not show evidence of QT/QTc interval prolongation of clinical or regulatory concern”. Besides, in series [1] (whole study), the “ECG abnormalities reported as TEAE” value was “No ECG abnormalities were reported as TEAE”; the “HR, RR interval, PR interval, QRS width” value was “No consistent or clinically relevant changes over time were observed in HR, RR interval, PR interval, or QRS width”; the “treatment-emergent QTcF or QTcB values >480 ms or changes >60 ms” value is listed as “No treatment-emergent actual values of QTcF or QTcB>480 ms or changes from baseline >60 ms were observed”; the “treatment-emergent actual values of QTc>480 ms” value is listed as “No treatment-emergent actual values of QTc>480 ms were observed”. The “treatment-emergent changes from baseline of QTcF or QTcP>60 ms” value in series [1] (whole study) was “No treatment-emergent changes from baseline of QTcF or QTcP>60 ms were observed”. Further, in series [7], the “efficacy compared with enoxaparin” value is recorded as “comparable efficacy to enoxaparin” and the “safety profile compared with enoxaparin” value is on record as “favorable safety profile”. Besides, the safety and tolerability result in series [8] (administration according to the disclosure) is “generally safe and well tolerated”. Also, the mean vital signs entry in series [8] (whole study) is recorded as “no consistent or clinically relevant changes over time in mean vital signs”.
